According to US10676470B2, “Inhibitors of lysine gingipain” (priority 2014, dated 2020):
Entries after “also recorded” stand apart in the source; their conditions may differ.

Columns and labels:
[1] = system: differentiated SHSY-5Y cells; assay: Gingipain-induced death of differentiated SH-SY5Y cells; type: cell-based; conditions: 100 nM Kgp and/or RgpB for 24 hours
Protocol: SH-SY5Y neuroblastoma cells were cultured and differentiated in the presence of 5 uM retinoic acid based on established methods [Saberi S., et al. Cell Mol Neurobiol 2013. 33: 747-751]. Differentiation into neuronal cells was verified by observation of neurite outgrowth. The differentiated cells were exposed to 100 nM Kgp and/or RgpB for 24 hours, in the presence or absence of Kgp inhibitors. Results were recorded using a digital microscope camera (FIG. 1C, FIG. 2C). Gingipains are toxic to cells while COR compounds prevent the cytotoxicity.

abeta 42 = assay: Brain abeta 42 ELISA in mice orally infected with P. gingivalis; type: in vivo; conditions: Balb/cJ mice, oral W83 P. gingivalis for 42 days; compound subcutaneously three times per day on days 21-42
Text: Female Balb/cJ mice were obtained from Taconic and allowed to acclimate. 43-44 week old mice were challenged orally with 10^9 CFU W83 P. gingivalis or a P. gingivalis strain lacking expression of Kgp every other day for 42 days. Compound 2 or vehicle (2% DMSO) was given subcutaneously three times per day on days 21-42. On day 42 mice were sacrificed and the brain removed and frozen. A sample including hippocampal tissue was lysed in RIPA buffer with protease inhibitors and analyzed for Abeta42 expression with the Amyloid beta 42 ELISA Kit, Mouse (Life Technologies).

SHSY5Y cells = assay: P. gingivalis-induced toxicity in SHSY5Y cells; type: cell-based; conditions: SHSY5Y cells in vitro, compared to the antibiotic moxifloxacin
lysine gingipain (Kgp) = lysine gingipain (Kgp) (Porphyromonas gingivalis (strain ATCC 33277 / DSM 20709 / CIP 103683 / JCM 12257 / NCTC 11834 / 2561), UniProt B2RLK2); assay: Fluorogenic lysine gingipain inhibition assay; type: biochemical; conditions: 0.1 nM Kgp, 10 uM Z-His-Glu-Lys-MCA, 90 minutes, 37° C., pH 7.5
Protocol: The capacities of compounds of the present invention to inhibit the activity of lysine gingipain were measured in a fluorogenic assay similar to those described in Barret Biochemical Journal. 1980, 187(3), 909. The specific assay conditions were as follows. Buffer: pH=7.5, 100 mM Tris-HCl, 75 mM NaCl, 2.5 mM CaCl2, 10 mM cysteine, 1% DMSO after all additions. Protein: 0.1 nM Kgp, isolated from culture of Porphyromonas gingivalis, as described in Pike et al. J. Biol. Chem. 1994, 269(1), 406, and Potempa and Nguyen. Current Protocols in Protein Scienc. 2007, 21.20.1-21.20.27. Fluorogenic substrate: 10 uM Z-His-Glu-Lys-MCA. Time=90 minutes. Temperature=37° C. Each compound: 10 concentrations, starting at either 100 uM or 100 nM, with lower concentrations generated by serial 3-fold dilutions. By testing a range of concentrations for each compound, the concentration required to inhibit the activity of lysine gingipain by 50% (the “IC50”) was determined. Under the described assay conditions, signal-to-noise was excellent, and Z factor was greater than 0.6.
The inhibitory of activity of compounds described herein was tested against Kgp, RgpB, and trypsin.

Row | SMILES | prevention of gingipain-induced cell death [1] | also measured
1 | NCCCC[C@H](NC(=O)c1ccccc1)C(=O)c1nc2ccccc2s1 [Compound 1, N-[(1S)-5-amino-1-(1,3-benzothiazole-2-carbonyl)pentyl]benzamide] | prevents gingipain-induced death; also recorded: effective at preventing cell death | –
2 | NCCCC[C@H](NC(=O)[C@H]1CCCN(C(=O)CCc2ccccc2)C1)C(=O)c1nc2ccccc2s1 [Compound 3, (3S)—N-[(1S)-5-amino-1-(1,3-benzothiazole-2-carbonyl)pentyl]-1-(3-phenylpropanoyl)piperidine-3-carboxamide] | does not | –
3 | NCCCC[C@H](NC(=O)C1CCCCC1)C(=O)c1nc2ccccc2s1 [Compound 2, N-[(1S)-5-amino-1-(1,3-benzothiazole-2-carbonyl)pentyl]cyclohexanecarboxamide] | prevents gingipain-induced death; also recorded: more effective; also recorded: effective at preventing cell death | brain levels of abeta 42 (ELISA) (abeta 42): resolved; also recorded: increase in abeta42 that was not apparently
4 | NCCCC[C@H](NC(=O)C1CCCC1)C(=O)COc1c(F)c(F)cc(F)c1F [Compound 43, N-[(1S)-5-amino-1-[2-(2,3,5,6-tetrafluorophenoxy)acetyl]pentyl]cyclopentanecarboxamide] | – | protection from P. gingivalis-induced toxicity (SHSY5Y cells): protects SHSY5Y cells from P. gingivalis-induced toxicity
5 | NCCCC[C@H](NC(=O)[C@@H]1CCCN(C(=O)CCc2ccccc2)C1)C(=O)c1nc2ccccc2s1 [Compound 4, (3R)—N-[(1S)-5-amino-1-(1,3-benzothiazole-2-carbonyl)pentyl]-1-(3-phenylpropanoyl)piperidine-3-carboxamide] | prevents gingipain-induced death | IC50 (lysine gingipain (Kgp)): 1 to 10 nM; prevention of gingipain-induced cell death ([1]; listed as 2-(N—[N-(3-phenylpropanoyl)-(R)-nipecotinyl]-(R)-lysinyl)-benzothiazole): effective at preventing cell death
